Experiments:
[1] = target: T1, HiBit-BRG1 fusion protein (Homo sapiens, UniProt P51532); test: HiBiT-BRG1 cell-based degradation assay (Nano-Glo HiBiT Lytic Detection, 24 h); settings: stable HeLa cell line expressing HiBit-BRG1 and LgBit, top dose 30 μM, read-out: BRG1 HiBit Degradation Maximum (%)
T1 construct: expressed in transfected cells
Method: (§1) Procedure: A stable HeLa cell line expressing HiBiT-BRM was generated. On day 0, 5000 cells were seeded in 40 μL of media into each well of 384-well cell culture plates. On day 1, cells were treated with 120 nL DMSO or 120 nL of 3-fold serially DMSO-diluted compounds (10 points in duplicate with 30 μM as final top dose). Subsequently plates were incubated for 24 h in a standard tissue culture incubator and equilibrated at room temperature for 15 minutes. Nano-Glo HiBiT Lytic Detection System (Promega N3050) reagent was freshly prepared and 20 ul was added to each well. Upon addition of this LgBit-containing reagent, the HiBiT and LgBiT proteins associate to form the luminescent NanoBiT luciferase. The plates were shaken for 10 minutes at room temperature and the bioluminescence read using an EnVision plate reader (PerkinElmer).
For measurement of BRG1 degradation, a stable HeLa cell line expressing HiBit-BRG1 and LgBit was generated. The same protocol as above was then followed.
(§2) The degradation % was calculated using the following formula: % degradation=100%−100%×(Lumsample−LumLC)/(LumHC−LumLC). DMSO treated cells are employed as High Control (HC) and 2 μM of a known BRM/BRG1 degrader standard treated cells are employed as Low Control (LC).

HiBit-BRM fusion protein = target: T2, HiBit-BRM fusion protein (Homo sapiens, UniProt P51531); test: HiBiT-BRM cell-based degradation assay (Nano-Glo HiBiT Lytic Detection, 24 h); settings: stable HeLa cell line expressing HiBiT-BRM, top dose 30 μM
T2 construct: expressed in transfected cells
Method: as §1, §2

T2 sequence (P51531 whole entry, the tested form may be a part): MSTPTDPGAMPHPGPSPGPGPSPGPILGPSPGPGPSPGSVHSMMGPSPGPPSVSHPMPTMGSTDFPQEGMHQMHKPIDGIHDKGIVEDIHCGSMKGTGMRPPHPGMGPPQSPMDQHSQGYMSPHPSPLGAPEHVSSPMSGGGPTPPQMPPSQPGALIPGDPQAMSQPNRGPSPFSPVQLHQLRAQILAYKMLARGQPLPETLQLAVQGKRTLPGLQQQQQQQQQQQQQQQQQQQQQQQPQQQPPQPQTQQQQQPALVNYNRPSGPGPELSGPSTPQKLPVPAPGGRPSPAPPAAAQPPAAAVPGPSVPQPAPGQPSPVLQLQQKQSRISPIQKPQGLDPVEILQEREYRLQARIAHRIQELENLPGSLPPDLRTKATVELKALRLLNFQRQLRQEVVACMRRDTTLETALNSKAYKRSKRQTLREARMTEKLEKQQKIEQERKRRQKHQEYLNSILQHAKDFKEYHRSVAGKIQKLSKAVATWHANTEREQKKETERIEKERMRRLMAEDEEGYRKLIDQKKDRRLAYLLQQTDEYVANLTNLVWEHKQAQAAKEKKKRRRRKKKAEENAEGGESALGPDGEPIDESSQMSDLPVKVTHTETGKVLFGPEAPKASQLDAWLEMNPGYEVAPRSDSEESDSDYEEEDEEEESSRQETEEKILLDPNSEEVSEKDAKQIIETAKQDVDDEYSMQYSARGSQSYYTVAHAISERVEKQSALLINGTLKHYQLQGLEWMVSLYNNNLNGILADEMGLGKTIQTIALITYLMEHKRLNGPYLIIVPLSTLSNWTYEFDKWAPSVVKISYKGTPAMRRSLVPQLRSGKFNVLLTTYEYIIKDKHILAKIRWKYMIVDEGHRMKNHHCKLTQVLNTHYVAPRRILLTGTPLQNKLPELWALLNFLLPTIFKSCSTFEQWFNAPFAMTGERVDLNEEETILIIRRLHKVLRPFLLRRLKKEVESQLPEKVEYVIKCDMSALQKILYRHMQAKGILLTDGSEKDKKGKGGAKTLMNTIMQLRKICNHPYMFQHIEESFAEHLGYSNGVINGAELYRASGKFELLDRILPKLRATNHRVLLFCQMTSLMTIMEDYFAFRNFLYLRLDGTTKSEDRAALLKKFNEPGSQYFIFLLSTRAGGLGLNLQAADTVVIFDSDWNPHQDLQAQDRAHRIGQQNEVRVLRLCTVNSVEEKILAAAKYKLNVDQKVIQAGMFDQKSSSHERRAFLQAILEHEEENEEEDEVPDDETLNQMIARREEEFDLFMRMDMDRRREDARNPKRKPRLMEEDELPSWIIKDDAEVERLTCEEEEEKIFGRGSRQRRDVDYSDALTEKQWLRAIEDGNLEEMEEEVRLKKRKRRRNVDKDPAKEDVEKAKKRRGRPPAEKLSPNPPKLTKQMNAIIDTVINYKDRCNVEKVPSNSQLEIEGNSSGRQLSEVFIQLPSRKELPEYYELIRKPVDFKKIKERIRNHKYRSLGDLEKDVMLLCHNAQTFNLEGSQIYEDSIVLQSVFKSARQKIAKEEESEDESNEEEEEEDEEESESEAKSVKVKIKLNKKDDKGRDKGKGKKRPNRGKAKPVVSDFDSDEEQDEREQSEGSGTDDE
T1 sequence (P51532 whole entry, the tested form may be a part): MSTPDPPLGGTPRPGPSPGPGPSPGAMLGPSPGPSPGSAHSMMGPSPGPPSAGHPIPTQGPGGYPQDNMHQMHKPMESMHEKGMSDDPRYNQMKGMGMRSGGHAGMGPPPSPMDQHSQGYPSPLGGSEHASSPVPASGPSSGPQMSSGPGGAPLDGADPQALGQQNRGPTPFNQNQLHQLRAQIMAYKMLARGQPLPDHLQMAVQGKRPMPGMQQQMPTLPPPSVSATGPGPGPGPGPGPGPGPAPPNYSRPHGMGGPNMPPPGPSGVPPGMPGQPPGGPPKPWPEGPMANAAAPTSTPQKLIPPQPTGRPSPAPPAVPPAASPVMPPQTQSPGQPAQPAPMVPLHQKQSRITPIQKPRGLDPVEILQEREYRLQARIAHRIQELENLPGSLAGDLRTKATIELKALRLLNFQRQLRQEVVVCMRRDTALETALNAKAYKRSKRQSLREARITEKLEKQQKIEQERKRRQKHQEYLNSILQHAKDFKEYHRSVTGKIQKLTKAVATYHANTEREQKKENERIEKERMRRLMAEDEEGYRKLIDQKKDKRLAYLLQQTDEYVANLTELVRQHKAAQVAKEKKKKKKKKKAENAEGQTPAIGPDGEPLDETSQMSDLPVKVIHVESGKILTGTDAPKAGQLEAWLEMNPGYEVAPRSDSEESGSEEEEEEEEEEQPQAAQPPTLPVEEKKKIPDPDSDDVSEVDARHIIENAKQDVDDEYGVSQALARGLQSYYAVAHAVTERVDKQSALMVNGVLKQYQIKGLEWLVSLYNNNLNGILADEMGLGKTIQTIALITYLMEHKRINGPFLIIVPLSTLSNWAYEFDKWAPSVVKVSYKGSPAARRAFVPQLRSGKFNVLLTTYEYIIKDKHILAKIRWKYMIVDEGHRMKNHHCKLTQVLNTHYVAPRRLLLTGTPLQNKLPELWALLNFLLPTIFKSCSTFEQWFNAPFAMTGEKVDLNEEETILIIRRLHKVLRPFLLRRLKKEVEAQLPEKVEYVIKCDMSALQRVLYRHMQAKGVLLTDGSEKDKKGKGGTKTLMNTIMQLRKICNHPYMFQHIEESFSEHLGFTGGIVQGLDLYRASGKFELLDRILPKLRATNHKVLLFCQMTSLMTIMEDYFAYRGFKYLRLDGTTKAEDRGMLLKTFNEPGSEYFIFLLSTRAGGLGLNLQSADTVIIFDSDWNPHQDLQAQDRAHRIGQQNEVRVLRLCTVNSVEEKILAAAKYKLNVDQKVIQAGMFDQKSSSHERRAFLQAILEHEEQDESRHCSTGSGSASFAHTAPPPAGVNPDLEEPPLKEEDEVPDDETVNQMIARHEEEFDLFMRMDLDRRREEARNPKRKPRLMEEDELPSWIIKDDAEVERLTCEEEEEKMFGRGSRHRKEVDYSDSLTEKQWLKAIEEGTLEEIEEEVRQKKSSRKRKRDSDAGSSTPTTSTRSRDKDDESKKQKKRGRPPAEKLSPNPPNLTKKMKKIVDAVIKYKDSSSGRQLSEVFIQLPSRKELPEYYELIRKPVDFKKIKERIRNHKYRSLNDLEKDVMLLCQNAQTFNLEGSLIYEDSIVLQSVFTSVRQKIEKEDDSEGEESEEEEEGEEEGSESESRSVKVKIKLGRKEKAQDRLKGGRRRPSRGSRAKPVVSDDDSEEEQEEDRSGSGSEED

Dmax [1] | Structure (SMILES) | BRM HiBit Degradation Maximum (%) (HiBit-BRM fusion protein)
< 50% | Cc1nc2cccc(NCCOCCOCCNC(=O)C34CC(COc5cc(-c6ccccc6O)nnc5N)(C3)C4)c2c(=O)n1C1CCC(=O)NC1=O (centres unmarked) [Compound 61, 3-(((3-amino-6-(2-hydroxyphenyl)pyridazin-4-yl)oxy)methyl)-N-(2-(2-(2-((3-(2,6-dioxopiperidin-3-yl)-2-methyl-4-oxo-3,4-dihydroquinazolin-5-yl)amino)ethoxy)ethoxy)ethyl)bicyclo[1.1.1]pentane-1-carboxamide] | C (“C” indicates maximum degradation < 50%)
< 50% | CN(CCNC(=O)COc1cccc2c1C(=O)N(C1CCC(=O)NC1=O)C2=O)CCNC(=O)C12CC(COc3cc(-c4ccccc4O)nnc3N)(C1)C2 (centres unmarked) [Compound 75, 3-(((3-amino-6-(2-hydroxyphenyl)pyridazin-4-yl)oxy)methyl)-N-(2-((2-(2-((2-(2,6-dioxopiperidin-3-yl)-1,3-dioxoisoindolin-4-yl)oxy)acetamido)ethyl)(methyl)amino)ethyl)bicyclo[1.1.1]pentane-1-carboxamide] | C (“C” indicates maximum degradation < 50%)
< 50% | Cc1ncsc1-c1ccc(CNC(=O)[C@@H]2C[C@@H](O)CN2C(=O)[C@@H](NC(=O)C23CC(COc4cc(-c5ccccc5O)nnc4N)(C2)C3)C(C)(C)C)cc1 [Compound 105, (2S,4R)-1-((S)-2-(3-(((3-amino-6-(2-hydroxyphenyl)pyridazin-4-yl)oxy)methyl)bicyclo[1.1.1]pentane-1-carboxamido)-3,3-dimethylbutanoyl)-4-hydroxy-N-(4-(4-methylthiazol-5-yl)benzyl)pyrrolidine-2-carboxamide] | C (“C” indicates maximum degradation < 50%)
< 50% | Nc1nnc(-c2ccccc2O)cc1OCC12CC(C(=O)NCCOCc3cccc(COCCOc4cccc5c4C(=O)N(C4CCC(=O)NC4=O)C5=O)c3)(C1)C2 (centres unmarked) [Compound 85, 3-(((3-amino-6-(2-hydroxyphenyl)pyridazin-4-yl)oxy)methyl)-N-(2-((3-((2-((2-(2,6-dioxopiperidin-3-yl)-1,3-dioxoisoindolin-4-yl)oxy)ethoxy)methyl)benzyl)oxy)ethyl)bicyclo[1.1.1]pentane-1-carboxamide] | C (“C” indicates maximum degradation < 50%)
< 50% | Cc1ncsc1-c1ccc(CNC(=O)[C@@H]2C[C@@H](O)CN2C(=O)[C@@H](NC(=O)CCCCCNC(=O)C23CC(COc4cc(-c5ccccc5O)nnc4N)(C2)C3)C(C)(C)C)cc1 [Compound 70, (2S,4R)-1-((S)-2-(6-(3-(((3-amino-6-(2-hydroxyphenyl)pyridazin-4-yl)oxy)methyl)bicyclo[1.1.1]pentane-1-carboxamido)hexanamido)-3,3-dimethylbutanoyl)-4-hydroxy-N-(4-(4-methylthiazol-5-yl)benzyl)pyrrolidine-2-carboxamide] | B (“B” indicates maximum degradation ≥ 50%)
< 50% | Nc1nnc(-c2ccccc2O)cc1OCC12CC(C(=O)NCCOc3cccc(OCCNc4cccc5c4C(=O)N(C4CCC(=O)NC4=O)C5=O)c3)(C1)C2 (centres unmarked) [Compound 83, 3-(((3-amino-6-(2-hydroxyphenyl)pyridazin-4-yl)oxy)methyl)-N-(2-(3-(2-((2-(2,6-dioxopiperidin-3-yl)-1,3-dioxoisoindolin-4-yl)amino)ethoxy)phenoxy)ethyl)bicyclo[1.1.1]pentane-1-carboxamide] | C (“C” indicates maximum degradation < 50%)

Continued, compound first:

Structure (SMILES) | Dmax [1] | BRM HiBit Degradation Maximum (%) (HiBit-BRM fusion protein)
Nc1nnc(-c2ccccc2O)cc1OCC12CC(C(=O)N3CCN(CCCOCC#Cc4ccc5c(c4)C(=O)N(C4CCC(=O)NC4=O)C5=O)CC3)(C1)C2 (centres unmarked) [Compound 52, 5-(3-(3-(4-(3-(((3-amino-6-(2-hydroxyphenyl)pyridazin-4-yl)oxy)methyl)bicyclo[1.1.1]pentane-1-carbonyl)piperazin-1-yl)propoxy)prop-1-yn-1-yl)-2-(2,6-dioxopiperidin-3-yl)isoindoline-1,3-dione] | < 50% | C (“C” indicates maximum degradation < 50%)
Nc1nnc(-c2ccccc2O)cc1OCC12CC(CNC(=O)CCOCCOCCOc3cccc4c3C(=O)N(C3CCC(=O)NC3=O)C4=O)(C1)C2 (centres unmarked) [Compound 14, N-((3-(((3-amino-6-(2-hydroxyphenyl)pyridazin-4-yl)oxy)methyl)bicyclo[1.1.1]pentan-1-yl)methyl)-3-(2-(2-((2-(2,6-dioxopiperidin-3-yl)-1,3-dioxoisoindolin-4-yl)oxy)ethoxy)ethoxy)propanamide] | < 50% | C (“C” indicates maximum degradation < 50%)
Nc1nnc(-c2ccccc2O)cc1OCC12CC(C(=O)NCCNc3ccc4c(c3)C(=O)N(C3CCC(=O)NC3=O)C4=O)(C1)C2 (centres unmarked) [Compound 56, 3-(((3-amino-6-(2-hydroxyphenyl)pyridazin-4-yl)oxy)methyl)-N-(2-((2-(2,6-dioxopiperidin-3-yl)-1,3-dioxoisoindolin-5-yl)amino)ethyl)bicyclo[1.1.1]pentane-1-carboxamide] | < 50% | C (“C” indicates maximum degradation < 50%)
Nc1nnc(-c2ccccc2O)cc1OCC12CC(CNC(=O)C3CC3CNC(=O)COc3ccc4c(c3)C(=O)N(C3CCC(=O)NC3=O)C4=O)(C1)C2 (centres unmarked) [Compound 13, N-[[3-([[3-amino-6-(2-hydroxyphenyl)pyridazin-4-yl]oxy]methyl)bicyclo[1.1.1]pentan-1-yl]methyl]-2-[(2-[[2-(2,6-dioxopiperidin-3-yl)-1,3-dioxoisoindol-5-yl]oxy]acetamido)methyl]cyclopropane-1-carboxamide] | < 50% | C (“C” indicates maximum degradation < 50%)
Nc1nnc(-c2ccccc2O)cc1OCCC12CC(NC(=O)CCCCCCCCNc3cccc4c3C(=O)N(C3CCC(=O)NC3=O)C4=O)(C1)C2 (centres unmarked) [Compound 23, N-[3-(2-[[3-amino-6-(2-hydroxyphenyl)pyridazin-4-yl]oxy]ethyl)bicyclo[1.1.1]pentan-1-yl]-9-[[2-(2,6-dioxopiperidin-3-yl)-1,3-dioxoisoindol-4-yl]amino]nonanamide] | < 50% | C (“C” indicates maximum degradation < 50%)
Nc1nnc(-c2ccccc2O)cc1OCCC12CC(NC(=O)CCCCCCOc3cccc4c3C(=O)N(C3CCC(=O)NC3=O)C4=O)(C1)C2 (centres unmarked) [Compound 20, N-[3-(2-[[3-amino-6-(2-hydroxyphenyl)pyridazin-4-yl]oxy]ethyl)bicyclo[1.1.1]pentan-1-yl]-7-[[2-(2,6-dioxopiperidin-3-yl)-1,3-dioxoisoindol-4-yl]oxy]heptanamide] | < 50% | C (“C” indicates maximum degradation < 50%)
Nc1nnc(-c2ccccc2O)cc1OCCC12CC(NC(=O)CCOCCOCCNc3ccc4c(c3)C(=O)N(C3CCC(=O)NC3=O)C4=O)(C1)C2 (centres unmarked) [Compound 22, N-[3-(2-[[3-amino-6-(2-hydroxyphenyl)pyridazin-4-yl]oxy]ethyl)bicyclo[1.1.1]pentan-1-yl]-3-[2-(2-[[2-(2,6-dioxopiperidin-3-yl)-1,3-dioxoisoindol-5-yl]amino]ethoxy)ethoxy]propanamide] | < 50% | C (“C” indicates maximum degradation < 50%)
